{
  "source": "patent US20160089464A1",
  "about": "“MALODOR REDUCTION COMPOSITIONS” (The Procter & Gamble Company, priority 2014, published 2016)",
  "data": [
    {"test": "Comment Code material properties: vapor pressure, ClogP, probability of ingredient color instability, odor detection threshold, melamine formaldehyde PMC headspace response ratio and leakage, liquid dish neat product liquid-air partition coefficient", "format": "physicochemical", "details": "Table 1 materials; each letter of the code is one property class (vapor pressure, ClogP, color instability, odor detection threshold, PMC headspace ratio, PMC leakage, liquid dish liquid-air partition coefficient)", "values": [
      {"smiles": "O=C1CCCCCCCCCCOCCCCO1", "note": "[Material 562]", "Comment Code": "DGJ"},
      {"smiles": "CC(=O)c1cc(C(C)(C)C)cc2c1CCC2(C)C", "note": "[Material 563]", "Comment Code": "DEFHJK"},
      {"smiles": "COC1(C)CCC23CC1C(C)(C)C2CCC3C", "note": "(stereo not drawn) [Material 565]", "Comment Code": "ADEFHJK"},
      {"smiles": "CC1CCC2C(C)(C)C3CC12CCC3(C)OC=O", "note": "(stereo not drawn) [Material 566]", "Comment Code": "BDEFHJK"},
      {"smiles": "CC(=O)O[C@]1(C)CC[C@@]23C[C@@H]1C(C)(C)[C@@H]2CC[C@H]3C", "note": "[Material 567]", "Comment Code": "DEFHJK"},
      {"smiles": "CC1=CCCC2(C)OC2CCC(C)=CCC1", "note": "(stereo not drawn) [Material 568]", "Comment Code": "DFHJK"},
      {"smiles": "C[C@@H]1CC[C@H]2C(C)(C)[C@H]3C[C@@]12CC[C@@]3(C)O", "note": "[Material 569]", "Comment Code": "DEFHJK"},
      {"smiles": "CC1=CCC(C23CCCC(C)(C2)OC3)C1(C)C", "note": "(stereo not drawn) [Material 570]", "Comment Code": "DEFHJK"},
      {"smiles": "CC1=CCC(C23CCCC(C)(C2)OC3)C1(C)C", "note": "(stereo not drawn) [Material 571]", "Comment Code": "DFHJ"},
      {"smiles": "CC1C(C)(C)C2=C(C(=O)CCC2)C1(C)C", "note": "(stereo not drawn) [Material 572]", "Comment Code": "BDEFHIJK"},
      {"smiles": "CC(=O)OC12CCCC(C)(CCC3C1CC3(C)C)C2", "note": "(stereo not drawn) [Material 573]", "Comment Code": "DEFHJK"},
      {"smiles": "CC12CCCC(O)(C1)C1CC(C)(C)C1CC2", "note": "(stereo not drawn) [Material 574]", "Comment Code": "DEFHJK"},
      {"smiles": "C=C(C)C1CC=C(C)C(OC(C)=O)C1", "note": "(stereo not drawn) [Material 577]", "Comment Code": "BDHIJK"},
      {"smiles": "CCCCCCCC#N", "note": "[Material 578]", "Comment Code": "ACEFGIKL"},
      {"smiles": "CCCCCCCCO", "note": "[Material 580]", "Comment Code": "ACEFGIKL"},
      {"smiles": "CCCCCCCCCC(=O)O", "note": "[Material 582]", "Comment Code": "DEFHJK"},
      {"smiles": "CCCCCCCCCC=O", "note": "[Material 584]", "Comment Code": "ADHKL"},
      {"smiles": "COc1ccc(CC(C)C=O)cc1", "note": "(stereo not drawn) [Material 586]", "Comment Code": "BCHJK"},
      {"smiles": "CC12CCC(C(=O)C1=O)C2(C)C", "note": "(stereo not drawn) [Material 587]", "Comment Code": "ACEFGIJK"},
      {"smiles": "C=C1C2CCC(C2)C1(C)C", "note": "(stereo not drawn) [Material 589]", "Comment Code": "ADEFGIJKL"},
      {"smiles": "CCCCCC1CC(=O)C=C(C)C1C(=O)OCC", "note": "(stereo not drawn) [Material 591]", "Comment Code": "DHJ"},
      {"smiles": "CCCCCCCCCCCCCCCCCC(=O)OCCCC", "note": "[Material 594]", "Comment Code": "DEFHJ"},
      {"smiles": "CCCCOC(=O)C(C)OC(=O)CCC", "note": "(stereo not drawn) [Material 595]", "Comment Code": "CEFGJK"},
      {"smiles": "C=CCCCCCCCCC(=O)OCCCC", "note": "[Material 599]", "Comment Code": "DEFHJK"},
      {"smiles": "CC1=CCC(CCC(C)CO)C1(C)C", "note": "(stereo not drawn) [Material 600]", "Comment Code": "DEFHJK"},
      {"smiles": "CC(C)(C)c1ccc(CCC=O)cc1", "note": "[Material 601]", "Comment Code": "BDHJK"},
      {"smiles": "CC(C)C(=O)OC1CC2CCC1(C)C2(C)C", "note": "(stereo not drawn) [Material 603]", "Comment Code": "BDEFHIJK"},
      {"smiles": "CC(=O)OC1CC2CCC1(C)C2(C)C", "note": "(stereo not drawn) [Material 604]", "Comment Code": "ADEFHIJKL"},
      {"smiles": "C=C1C2CCC(C)(OCC)C1CCC2(C)C", "note": "(stereo not drawn) [Material 606]", "Comment Code": "BDEFHJK"},
      {"smiles": "CCOCOC1CCCCCCCCCCC1", "note": "[Material 607]", "Comment Code": "DEFHJK"},
      {"smiles": "CC(C)=CCCC(C)=C1CC=C(C)CC1", "note": "[Material 608]", "Comment Code": "DEFHJK"},
      {"smiles": "CC1=CC(=O)CC(C)C12CCC(=C(C)C)C2", "note": "(stereo not drawn) [Material 610]", "Comment Code": "DHJK"}
    ]},
    {"test": "Comment Code material properties: vapor pressure, ClogP, probability of ingredient color instability, odor detection threshold, melamine formaldehyde PMC headspace response ratio and leakage, liquid dish neat product liquid-air partition coefficient", "format": "physicochemical", "details": "cell strings several class symbols together; each letter is one property class of L1", "values": [
      {"smiles": "C=C(C)C1CCC(C)C(=O)C1", "note": "(stereo not drawn) [Material 419]", "Comment Code": "ACGIJKL"},
      {"smiles": "CC1CCOC(c2ccccc2)C1", "note": "(stereo not drawn) [Material 420]", "Comment Code": "BDEFHJK"},
      {"smiles": "CCCCCC1=C(C)CCC1=O", "note": "[Material 438]", "Comment Code": "BCFHIJKL"},
      {"smiles": "CC1CC(=O)CC(C)(C)C1", "note": "(stereo not drawn) [Material 439]", "Comment Code": "ACEFGIJKL"},
      {"smiles": "CCCc1ccc(O)c(OC)c1", "note": "[Material 440]", "Comment Code": "CEFHIJK"},
      {"smiles": "CC(=O)OC1CC2CC1C1CCCC21", "note": "(stereo not drawn) [Material 441]", "Comment Code": "DEFHJKL"},
      {"smiles": "O=C1CCc2ccccc2O1", "note": "[Material 442]", "Comment Code": "BCGIKL"},
      {"smiles": "C=C(C)C1CCC(C)C(=O)C1", "note": "(stereo not drawn) [Material 443]", "Comment Code": "ACGIJKL"},
      {"smiles": "CC(=O)OC(C)(C)C1CCC(C)CC1", "note": "(stereo not drawn) [Material 447]", "Comment Code": "BDEFHIJKL"},
      {"smiles": "CC(=O)CCC1C(C)=CCCC1(C)C", "note": "(stereo not drawn) [Material 448]", "Comment Code": "BDHIJK"},
      {"smiles": "c1ccc(COCc2ccccc2)cc1", "note": "[Material 454]", "Comment Code": "DEFHJK"},
      {"smiles": "CCCCOC(=O)c1ccccc1C(=O)OCCCC", "note": "[Material 455]", "Comment Code": "DEFHJ"},
      {"smiles": "CCCCCC1CCCC1=O", "note": "(stereo not drawn) [Material 469]", "Comment Code": "BDFHIKL"},
      {"smiles": "COC(=O)C1(C)CCC(C)CC1", "note": "(stereo not drawn) [Material 477]", "Comment Code": "ADEFHIJKL"},
      {"smiles": "CC(=O)OCCC1CCCCC1", "note": "[Material 481]", "Comment Code": "BDEFHJKL"},
      {"smiles": "CCCC(=O)OC1CC2CC1C1CC=CC21", "note": "(stereo not drawn) [Material 484]", "Comment Code": "DEFHJK"},
      {"smiles": "CC(C)C(=O)OC1CC2CC1C1C=CCC21", "note": "(stereo not drawn) [Material 487]", "Comment Code": "DEFHJK"},
      {"smiles": "C=CC1(C)Cc2occ(C)c2CC1C(=C)C", "note": "(stereo not drawn) [Material 488]", "Comment Code": "DHJK"},
      {"smiles": "C=CC(C)=CC=CC(=C)C", "note": "[Material 495]", "Comment Code": "ADEFGIKL"},
      {"smiles": "CC(C)(O)CCC1CCCCC1", "note": "[Material 496]", "Comment Code": "BDEFGIJK"},
      {"smiles": "O=C1CCCCCCC/C=C/CCCCCCC1", "note": "[Material 501]", "Comment Code": "DEFGJ"},
      {"smiles": "C=CC(C)(C#N)Cc1ccccc1", "note": "(stereo not drawn) [Material 504]", "Comment Code": "BDHJK"},
      {"smiles": "CC(C)=CCCC(C)CC#N", "note": "(stereo not drawn) [Material 509]", "Comment Code": "BCEFGIKL"},
      {"smiles": "CC(C)=CCCC(C)CCOC(=O)Cc1ccccc1", "note": "(stereo not drawn) [Material 510]", "Comment Code": "DFHJ"},
      {"smiles": "CC(C)=CCCC(C)CCOC=O", "note": "(stereo not drawn) [Material 512]", "Comment Code": "BCEFGJKL"},
      {"smiles": "CC(C)=CCCC(C)CCOC(=O)c1ccccc1", "note": "(stereo not drawn) [Material 515]", "Comment Code": "DFHJ"},
      {"smiles": "CC(C)=CCCC(C)CCO", "note": "(stereo not drawn) [Material 517]", "Comment Code": "BCHIJKL"},
      {"smiles": "CC(C)=CCCC(C)CC=O", "note": "(stereo not drawn) [Material 518]", "Comment Code": "ACHIJKL"},
      {"smiles": "CC1CCC2CC1C2(C)C", "note": "(stereo not drawn) [Material 525]", "Comment Code": "ADEFGIJKL"},
      {"smiles": "CC/C=C\\CC1=C(C)CCC1=O", "note": "[Material 526]", "Comment Code": "BCHIJKL"},
      {"smiles": "C/C=C\\c1ccc(O)c(OC)c1", "note": "[Material 528]", "Comment Code": "CEFHIK"},
      {"smiles": "CC/C=C\\CCOC(=O)CCCC", "note": "[Material 535]", "Comment Code": "BDEFHJKL"},
      {"smiles": "C/C=C(\\C)C(=O)OCC/C=C\\CC", "note": "[Material 536]", "Comment Code": "BDEFHJK"},
      {"smiles": "CC/C=C\\CCOC(=O)CC", "note": "[Material 538]", "Comment Code": "ACEFHIKL"},
      {"smiles": "CC/C=C\\CCOC(=O)CCC", "note": "[Material 540]", "Comment Code": "ADEFHJKL"},
      {"smiles": "CC/C=C\\CCO", "note": "[Material 542]", "Comment Code": "ACEFHIKL"},
      {"smiles": "CCC/C=C\\CO", "note": "[Material 547]", "Comment Code": "ACEFHIKL"},
      {"smiles": "N#CC=Cc1ccccc1", "note": "[Material 549]", "Comment Code": "ACEFGIK"},
      {"smiles": "O=C/C=C/c1ccccc1", "note": "[Material 554]", "Comment Code": "ACHIK"},
      {"smiles": "N#C/C=C/c1ccccc1", "note": "[Material 556]", "Comment Code": "ACEFGIK"},
      {"smiles": "Cc1cc(O)cc(C)c1Cl", "note": "[Material 557]", "Comment Code": "BCHIJK"},
      {"smiles": "COC1(C)CCC23CC1C(C)(C)C2CCC3C", "note": "(stereo not drawn) [Material 565]", "Comment Code": "BDEFHJK"},
      {"smiles": "CC1CCC2C(C)(C)C3CC12CCC3(C)OC=O", "note": "(stereo not drawn) [Material 566]", "Comment Code": "BDEFHJK"},
      {"smiles": "CC(=O)O[C@]1(C)CC[C@@]23C[C@@H]1C(C)(C)[C@@H]2CC[C@H]3C", "note": "[Material 567]", "Comment Code": "DEFHJK"},
      {"smiles": "C[C@@H]1CC[C@H]2C(C)(C)[C@H]3C[C@@]12CC[C@@]3(C)O", "note": "[Material 569]", "Comment Code": "DEFHJK"},
      {"smiles": "CC1=CCC(C23CCCC(C)(C2)OC3)C1(C)C", "note": "(stereo not drawn) [Material 570]", "Comment Code": "DEFHJK"},
      {"smiles": "CC(=O)OC12CCCC(C)(CCC3C1CC3(C)C)C2", "note": "(stereo not drawn) [Material 573]", "Comment Code": "DEFHJK"},
      {"smiles": "CC12CCCC(O)(C1)C1CC(C)(C)C1CC2", "note": "(stereo not drawn) [Material 574]", "Comment Code": "DEFHJK"},
      {"smiles": "Cc1ccc(C(C)C)cc1O", "note": "[Material 575]", "Comment Code": "DHIJK"},
      {"smiles": "C=C(C)C1CC=C(C)C(=O)C1", "note": "(stereo not drawn) [Material 576]", "Comment Code": "ACGIJKL"},
      {"smiles": "CCOCCOCCO", "note": "[Material 579]", "Comment Code": "BCEFGIK"},
      {"smiles": "CCCCCC(=O)O", "note": "[Material 583]", "Comment Code": "ACEFGIKL"},
      {"smiles": "CC1=CCC(CC#N)C1(C)C", "note": "(stereo not drawn) [Material 585]", "Comment Code": "ACGIJKL"},
      {"smiles": "CC12CCC(CC1=O)C2(C)C", "note": "(stereo not drawn) [Material 588]", "Comment Code": "ACEFGIJKL"},
      {"smiles": "CC1=C(C/C=C(\\C)C=O)C(C)(C)CCC1", "note": "[Material 602]", "Comment Code": "DHJK"}
    ]}
  ]
}
